The test has as its target CK2A1 (CK2α/β) (Homo sapiens, UniProt P68400). The test can be described thus: CK2 kinase assay, CK2A1 (CK2α/β). Type of test: biochemical. The settings on record: Table A; read-out: CK2A1 (CK2α/β) (IC50).
Chain of CK2A1 (CK2α/β) (P68400 whole entry, species assumed): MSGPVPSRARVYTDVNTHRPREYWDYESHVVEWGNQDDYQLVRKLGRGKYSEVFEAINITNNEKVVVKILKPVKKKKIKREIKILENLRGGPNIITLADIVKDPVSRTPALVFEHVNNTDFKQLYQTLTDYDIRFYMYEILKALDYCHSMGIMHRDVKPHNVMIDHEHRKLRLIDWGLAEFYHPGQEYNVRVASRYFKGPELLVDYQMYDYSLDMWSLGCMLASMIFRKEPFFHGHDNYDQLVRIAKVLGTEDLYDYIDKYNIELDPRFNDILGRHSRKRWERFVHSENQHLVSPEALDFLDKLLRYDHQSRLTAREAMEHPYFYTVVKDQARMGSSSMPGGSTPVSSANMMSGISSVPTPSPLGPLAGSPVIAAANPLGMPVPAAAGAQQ
Chain of CK2A1 (CK2α/β) (P67870 whole entry partner, species assumed): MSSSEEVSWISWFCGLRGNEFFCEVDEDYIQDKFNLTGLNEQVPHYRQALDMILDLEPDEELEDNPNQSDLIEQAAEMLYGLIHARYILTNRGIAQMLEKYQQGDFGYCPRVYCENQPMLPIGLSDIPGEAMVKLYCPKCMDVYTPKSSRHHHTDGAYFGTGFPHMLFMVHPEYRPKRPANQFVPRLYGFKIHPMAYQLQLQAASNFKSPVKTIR
With `N#Cc1cc(Nc2nc(NC3CC3)c3ncc(C#N)n3n2)c(Cl)c(OC2CNCCOC2)c1` (racemic) [Example 440, (+/−)-2-((3-((1,4-oxazepan-6-yl)oxy)-2-chloro-5-cyanophenyl)amino)-4-(cyclopropylamino)imidazo[2,1-f][1,2,4]triazine-7-carbonitrile], the IC50 came to 0.88 nM.
To `N#Cc1cc(Nc2nc(NC3CC3)c3ncc(C#N)n3n2)c(Cl)c(N2CCC3NCCC3C2)c1` (racemic) [Example 442, 2-((2-chloro-5-cyano-3-(hexahydro-1H-pyrrolo[3,2-c]pyridin-5(6H)-yl)phenyl)amino)-4-(cyclopropylamino)imidazo[2,1-f][1,2,4]triazine-7-carbonitrile] belongs 0.77 nM.
For `CC(O)CN1CCC2CN(c3cc(C#N)cc(Nc4nc(NC5CC5)c5ncc(C#N)n5n4)c3Cl)CCC21` (racemic) [Example 447, (+/−)-2-((2-chloro-5-cyano-3-(1-(2-hydroxypropyl)hexahydro-1H-pyrrolo[3,2-c]pyridin-5(6H)-yl)phenyl)amino)-4-(cyclopropylamino)imidazo[2,1-f][1,2,4]triazine-7-carbonitrile] the value was 0.89 nM; for `N#Cc1cc(Nc2nc(NC3CC3)c3ncc(C#N)n3n2)c(Cl)c(N2CCC3C(CCN3[C@H]3COC[C@@H]3O)C2)c1` (mixture of isomers) [Example 451, (+/−)-2-((2-chloro-5-cyano-3-(1-((3S,4R)-4-hydroxytetrahydrofuran-3-yl)hexahydro-1H-pyrrolo[3,2-c]pyridin-5(6H)-yl)phenyl)amino)-4-(cyclopropylamino)imidazo[2,1-f][1,2,4]triazine-7-carbonitrile], 5.52 nM.
For the molecule `N#Cc1cc(Nc2nc(NC3CC3)c3ncc(C#N)n3n2)c(Cl)c(N2CCC3CCNC3C2)c1` (racemic) [Example 454, (+/−)-2-((2-chloro-5-cyano-3-(hexahydro-1H-pyrrolo[2,3-c]pyridin-6(2H)-yl)phenyl)amino)-4-(cyclopropylamino)imidazo[2,1-f][1,2,4]triazine-7-carbonitrile], the IC50 is 1.25 nM.
To `CN1CCC2CCN(c3cc(C#N)cc(Nc4nc(NC5CC5)c5ncc(C#N)n5n4)c3Cl)CC21` (racemic) [Example 456] belongs 2.9 nM.
For `N#Cc1cc(Nc2nc(NC3CC3)c3ncc(C#N)n3n2)c(Cl)c(N2CCC3CCN(C4COC4)C3C2)c1` (racemic) [Example 457, (+/−)-2-((2-chloro-5-cyano-3-(1-(oxetan-3-yl)hexahydro-1H-pyrrolo[2,3-c]pyridin-6(2H)-yl)phenyl)amino)-4-(cyclopropylamino)imidazo[2,1-f][1,2,4]triazine-7-carbonitrile] the value was 4.9 nM; for `COC(=O)N1CCC2CCN(c3cc(C#N)cc(Nc4nc(NC5CC5)c5ncc(C#N)n5n4)c3Cl)CC21` (racemic) [Example 458, (+/−)-methyl 6-(2-chloro-5-cyano-3-((7-cyano-4-(cyclopropylamino)imidazo[2,1-f][1,2,4]triazin-2-yl)amino)phenyl)octahydro-1H-pyrrolo[2,3-c]pyridine-1-carboxylate], 16.4 nM.
Regarding `N#Cc1cc(Nc2nc(NC3CC3)c3ncc(C#N)n3n2)c(Cl)c(N2CCC3CCN(CC(O)CF)C3C2)c1` (racemic) [Example 459, (+/−)-2-((2-chloro-5-cyano-3-(1-(3-fluoro-2-hydroxypropyl)hexahydro-1H-pyrrolo[2,3-c]pyridin-6(2H)-yl)phenyl)amino)-4-(cyclopropylamino)imidazo[2,1-f][1,2,4]triazine-7-carbonitrile], the IC50 is 1.27 nM.
Turning to `CC(O)CN1CCC2CCN(c3cc(C#N)cc(Nc4nc(NC5CC5)c5ncc(C#N)n5n4)c3Cl)CC21` (racemic) [Example 460, (+/−)-2-((2-chloro-5-cyano-3-(1-(2-hydroxypropyl)hexahydro-1H-pyrrolo[2,3-c]pyridin-6(2H)-yl)phenyl)amino)-4-(cyclopropylamino)imidazo[2,1-f][1,2,4]triazine-7-carbonitrile], the IC50 is 1.62 nM.

The values are drawn from patent US9273057B2 (Bristol-Myers Squibb Company, priority 2012, dated 2016).
